Biological target: T1, delF508-CFTR (Homo sapiens, UniProt P13569, DEL508-508)
T1 construct: expressed in transfected cells
Test: Measurement of delF508-CFTR-HRP surface expression in CFBE41o- cells
Type: cell-based
Conditions: for EC50: HRP-tagged delF508-CFTR surface expression, CFBE41o- cells, 24 h with compound, 10-point curve, highest concentration 10 μM; for Emax: CFBE41o-, efficacy relative to reference compound 3-(6-(1-(2,2-difluorobenzo[d][1,3]dioxol-5-yl)cyclopropane-1-carboxamido)-3-methylpyridin-2-yl)benzoic acid, read-out: DelF508-CFTR-HRP Amax %
How it was run: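 CFBE41o- cells stably expressing delF508-CFTR with HRP in the fourth extracellular loop, induced 48 h with 500 ng/mL doxycycline, then exposed to compound (10-point, 3-fold, top 10 μM, ≤0.5% DMSO) for 24 h at 37° C. Surface HRP read by luminescence with cell-impermeant substrate; EC50 by logistic fit, triplicates, efficacy relative to reference corrector.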

T1 sequence (P13569 with tags, fused parts or gaps DEL508-508): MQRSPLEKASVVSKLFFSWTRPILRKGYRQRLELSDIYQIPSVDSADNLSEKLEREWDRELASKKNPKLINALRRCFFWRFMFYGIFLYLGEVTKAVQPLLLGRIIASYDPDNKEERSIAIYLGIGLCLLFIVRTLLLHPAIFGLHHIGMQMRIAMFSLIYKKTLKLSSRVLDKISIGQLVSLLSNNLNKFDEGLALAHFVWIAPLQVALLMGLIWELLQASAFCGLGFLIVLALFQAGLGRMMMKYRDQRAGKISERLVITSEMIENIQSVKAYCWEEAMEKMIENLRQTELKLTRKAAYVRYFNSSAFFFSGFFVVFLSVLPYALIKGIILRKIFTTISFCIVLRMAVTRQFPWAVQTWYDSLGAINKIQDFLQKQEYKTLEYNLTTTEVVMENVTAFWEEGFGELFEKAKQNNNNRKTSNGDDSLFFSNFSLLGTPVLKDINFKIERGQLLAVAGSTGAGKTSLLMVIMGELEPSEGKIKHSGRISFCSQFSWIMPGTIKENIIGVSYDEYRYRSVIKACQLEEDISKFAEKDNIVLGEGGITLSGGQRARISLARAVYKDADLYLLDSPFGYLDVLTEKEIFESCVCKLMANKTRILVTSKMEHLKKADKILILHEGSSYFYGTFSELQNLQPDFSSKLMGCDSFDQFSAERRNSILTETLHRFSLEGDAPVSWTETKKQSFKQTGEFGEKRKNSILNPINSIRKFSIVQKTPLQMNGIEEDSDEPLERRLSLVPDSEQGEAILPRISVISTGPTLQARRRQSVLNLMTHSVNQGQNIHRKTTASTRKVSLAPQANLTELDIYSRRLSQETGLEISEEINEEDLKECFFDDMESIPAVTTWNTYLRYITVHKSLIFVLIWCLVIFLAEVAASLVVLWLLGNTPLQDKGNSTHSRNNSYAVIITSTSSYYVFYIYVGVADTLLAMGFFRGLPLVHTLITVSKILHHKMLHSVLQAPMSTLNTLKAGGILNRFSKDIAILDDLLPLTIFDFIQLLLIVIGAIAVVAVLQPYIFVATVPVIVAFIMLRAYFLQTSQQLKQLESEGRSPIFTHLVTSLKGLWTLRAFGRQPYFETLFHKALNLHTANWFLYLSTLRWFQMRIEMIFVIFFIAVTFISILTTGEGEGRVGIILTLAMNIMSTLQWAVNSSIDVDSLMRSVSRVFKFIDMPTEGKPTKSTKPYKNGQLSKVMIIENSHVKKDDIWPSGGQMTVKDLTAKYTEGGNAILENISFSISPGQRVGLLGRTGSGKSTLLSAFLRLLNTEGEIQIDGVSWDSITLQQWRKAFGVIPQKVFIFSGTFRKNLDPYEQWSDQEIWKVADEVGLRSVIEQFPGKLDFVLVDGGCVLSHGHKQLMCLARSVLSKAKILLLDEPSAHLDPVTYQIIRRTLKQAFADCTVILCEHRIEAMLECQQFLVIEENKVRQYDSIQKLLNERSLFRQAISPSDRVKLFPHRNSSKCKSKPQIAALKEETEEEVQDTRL

Row | Compound | EC50 [nM] | Emax [%]
1 | O=C(O)CCN1CCCCc2ccccc2-c2nc(ccc2C(F)(F)F)NS(=O)(=O)c2cccc1n2 [Compound 87, 3-(4,4-dioxido-2^3-(trifluoromethyl)-4-thia-3,6-diaza-2,5(2,6)-dipyridina-1(1,2)-benzenacyclodecaphane-6-yl)propanoic acid] | 1420 | 306
2 | O=C(O)CCCN1CCOCCCc2ccccc2-c2nc(ccc2C(F)(F)F)NS(=O)(=O)c2cccc1n2 [Compound 88, 4-(4,4-dioxido-2^3-(trifluoromethyl)-9-oxa-4-thia-3,6-diaza-2,5(2,6)-dipyridina-1(1,2)-benzenacyclododecaphane-6-yl)butanoic acid] | 2070 | 
3 | O=C(O)CCCN1CCCCc2ccccc2-c2nc(ccc2Cl)NS(=O)(=O)c2cccc1n2 [Compound 91, 4-(2^3-chloro-4,4-dioxido-4-thia-3,6-diaza-2,5(2,6)-dipyridina-1(1,2)-benzenacyclodecaphane-6-yl)butanoic acid] | 2760 | 721
4 | O=C(O)CCN1CCCCCc2ccccc2-c2cccc(n2)NS(=O)(=O)c2cccc1n2 [Compound 93, 3-(4,4-dioxido-4-thia-3,6-diaza-2,5(2,6)-dipyridina-1(1,2)-benzenacycloundecaphane-6-yl)propanoic acid] | 2650 | 179
5 | O=C(O)CCCN1CCCOCc2ccccc2-c2nc(ccc2C(F)(F)F)NS(=O)(=O)c2cccc1n2 [Compound 102, 4-(4,4-dioxido-2^3-(trifluoromethyl)-10-oxa-4-thia-3,6-diaza-2,5(2,6)-dipyridina-1(1,2)-benzenacycloundecaphane-6-yl)butanoic acid] | 2300 | 
6 | O=S1(=O)Nc2ccc(C(F)(F)F)c(n2)-c2cccnc2OCCCCCOc2cccc1n2 [Compound 103, 2^3-(trifluoromethyl)-6,12-dioxa-4-thia-3-aza-1(3,2),2,5(2,6)-tripyridinacyclododecaphane 4,4-dioxide] | 1380 | 197
7 | O=S1(=O)Nc2ccc(Cl)c(n2)-c2cccnc2NCCCCCNc2cccc1n2 [Compound 105, 2^3-chloro-4-thia-3,6,12-triaza-1(3,2),2,5(2,6)-tripyridinacyclododecaphane 4,4-dioxide] | 2220 | 178
8 | Cc1ccnc2c1-c1nc(ccc1Cl)NS(=O)(=O)c1cccc(n1)NCCCCCN2 [Compound 106, 2^3-chloro-1^4-methyl-4-thia-3,6,12-triaza-1(3,2),2,5(2,6)-tripyridinacyclododecaphane 4,4-dioxide] | 1410 | 287
9 | O=C(O)CCC1CCCCc2ccccc2-c2nc(ccc2C(F)(F)F)NS(=O)(=O)c2cccc(n2)O1 (stereo not shown) [Compound 110, 3-(4,4-dioxido-2^3-(trifluoromethyl)-6-oxa-4-thia-3-aza-2,5(2,6)-dipyridina-1(1,2)-benzenacycloundecaphane-7-yl)propanoic acid] | 477 | 170
10 | O=S1(=O)Nc2ccc(Cl)c(n2)-c2ccccc2CCCCOc2cccc1n2 [Compound 112, 2^3-chloro-6-oxa-4-thia-3-aza-2,5(2,6)-dipyridina-1(1,2)-benzenacyclodecaphane 4,4-dioxide] | 2600 | 644
11 | O=S1(=O)Nc2ccc(Cl)c(n2)-c2ccccc2CCCCCOc2cccc1n2 [Compound 113, 2^3-chloro-6-oxa-4-thia-3-aza-2,5(2,6)-dipyridina-1(1,2)-benzenacycloundecaphane 4,4-dioxide] | 2150 | 664
12 | O=S1(=O)Nc2ccc(Cl)c(n2)-c2ccccc2CCCOc2cccc1n2 [Compound 114, 2^3-chloro-6-oxa-4-thia-3-aza-2,5(2,6)-dipyridina-1(1,2)-benzenacyclononaphane 4,4-dioxide] | 3310 | 97.1

Further compounds by falling EC50, results first:

Row | EC50 [nM] | Emax [%] | Compound
13 | 1410 | 949 | O=C(O)CN1CCCCCCc2ccccc2-c2nc(ccc2C(F)(F)F)NS(=O)(=O)c2cccc1n2 [Compound 120, 2-(4,4-dioxido-2^3-(trifluoromethyl)-4-thia-3,6-diaza-2,5(2,6)-dipyridina-1(1,2)-benzenacyclododecaphane-6-yl)acetic acid]
14 | 1320 |  | O=C(O)C1(CN2CCOCCCc3ccccc3-c3nc(ccc3C(F)(F)F)NS(=O)(=O)c3cccc2n3)CC1 [Compound 95, 1-((4,4-dioxido-2^3-(trifluoromethyl)-9-oxa-4-thia-3,6-diaza-2,5(2,6)-dipyridina-1(1,2)-benzenacyclododecaphane-6-yl)methyl)cyclopropane-1-carboxylic acid]
15 | 1270 | 443 | O=S1(=O)Nc2ccc(C(F)(F)F)c(n2)-c2cccnc2OCCCCCNc2cccc1n2 [Compound 108, 2^3-(trifluoromethyl)-1^2-oxa-4-thia-3,6-diaza-1(3,2),2,5(2,6)-tripyridinacyclododecaphane 4,4-dioxide]
16 | 1260 | 169 | O=S1(=O)Nc2ccc(Cl)c(n2)-c2cccnc2OCCCCCNc2cccc1n2 [Compound 107, 2^3-chloro-12-oxa-4-thia-3,6-diaza-1(3,2),2,5(2,6)-tripyridinacyclododecaphane 4,4-dioxide]
17 | 1060 |  | O=S1(=O)Nc2ccc(Cl)c(n2)-c2ccccc2CCCCCCOc2cccc1n2 [Compound 111, 2^3-chloro-6-oxa-4-thia-3-aza-2,5(2,6)-dipyridina-1(1,2)-benzenacyclododecaphane 4,4-dioxide]
18 | 866 | 356 | O=S1(=O)Nc2ccc(C(F)(F)F)c(n2)-c2ccccc2CCCOCCNc2cccc1n2 [Compound 119, 2^3-(trifluoromethyl)-9-oxa-4-thia-3,6-diaza-2,5(2,6)-dipyridina-1(1,2)-benzenacyclododecaphane 4,4-dioxide]
19 | 747 | 728 | O=C(O)CCN1CCCCCc2ccc(F)cc2-c2nc(ccc2C(F)(F)F)NS(=O)(=O)c2cccc1n2 [Compound 97, 3-(1^5-fluoro-4,4-dioxido-2^3-(trifluoromethyl)-4-thia-3,6-diaza-2,5(2,6)-dipyridina-1(1,2)-benzenacycloundecaphane-6-yl)propanoic acid]
20 | 566 | 737 | O=C(O)C1(CN2CCCCCc3ccccc3-c3nc(ccc3C(F)(F)F)NS(=O)(=O)c3cccc2n3)CC1 [Compound 94, 1-((4,4-dioxido-2^3-(trifluoromethyl)-4-thia-3,6-diaza-2,5(2,6)-dipyridina-1(1,2)-benzenacycloundecaphane-6-yl)methyl)cyclopropane-1-carboxylic acid]
21 | 511 | 705 | O=S1(=O)Nc2ccc(C(F)(F)F)c(n2)-c2ccccc2CCCCCNc2cccc1n2 [Compound 118, 2^3-(trifluoromethyl)-4-thia-3,6-diaza-2,5(2,6)-dipyridina-1(1,2)-benzenacycloundecaphane 4,4-dioxide]
22 | 495 | 348 | O=S1(=O)Nc2ccc(C(F)(F)F)c(n2)-c2ccccc2CCCCCN(CCN2CCNCC2)c2cccc1n2 [Compound 121, 6-(2-(piperazin-1-yl)ethyl)-2^3-(trifluoromethyl)-4-thia-3,6-diaza-2,5(2,6)-dipyridina-1(1,2)-benzenacycloundecaphane 4,4-dioxide]
23 | 456 | 430 | O=S1(=O)Nc2ccc(C(F)(F)F)c(n2)-c2ccccc2CCCCNc2cccc1n2 [Compound 115, 2^3-(trifluoromethyl)-4-thia-3,6-diaza-2,5(2,6)-dipyridina-1(1,2)-benzenacyclodecaphane 4,4-dioxide]
24 | 445 | 737 | O=S1(=O)Nc2ccc(C(F)(F)F)c(n2)-c2ccccc2CCCCN(CCO)c2cccc1n2 [Compound 116, 6-(2-hydroxyethyl)-2^3-(trifluoromethyl)-4-thia-3,6-diaza-2,5(2,6)-dipyridina-1(1,2)-benzenacyclodecaphane 4,4-dioxide]
25 | 431 | 792 | CC(C)(CN1CCCCCc2ccc(F)cc2-c2nc(ccc2C(F)(F)F)NS(=O)(=O)c2cccc1n2)C(=O)O [Compound 96, 3-(1^5-fluoro-4,4-dioxido-2^3-(trifluoromethyl)-4-thia-3,6-diaza-2,5(2,6)-dipyridina-1(1,2)-benzenacycloundecaphane-6-yl)-2,2-dimethylpropanoic acid]
26 | 386 | 186 | O=S1(=O)Nc2ccc(C(F)(F)F)c(n2)-c2ccccc2CCCCC(CCCO)Oc2cccc1n2 (stereo not shown) [Compound 109, 7-(3-hydroxypropyl)-2^3-(trifluoromethyl)-6-oxa-4-thia-3-aza-2,5(2,6)-dipyridina-1(1,2)-benzenacycloundecaphane 4,4-dioxide]
27 | 293 |  | O=C(O)CCCN1CCCCCc2ccc(F)cc2-c2nc(ccc2C(F)(F)F)NS(=O)(=O)c2cccc1n2 [Compound 86, 4-(1^5-fluoro-4,4-dioxido-2^3-(trifluoromethyl)-4-thia-3,6-diaza-2,5(2,6)-dipyridina-1(1,2)-benzenacycloundecaphane-6-yl)butanoic acid]
28 | 226 | 205 | O=S1(=O)Nc2ccc(C(F)(F)F)c(n2)-c2cccnc2O[C@H]2CCC[C@H](CCC2)Oc2cccc1n2 [Compound 104, (4^1s,4^5s)-1^3-(trifluoromethyl)-3,5-dioxa-7-thia-8-aza-1,6(2,6),2(3,2)-tripyridina-4(1,5)-cyclooctanacyclooctaphane 7,7-dioxide]
29 | 84 |  | O=C(O)CCCCN1CCCCCCCc2ccccc2-c2nc(ccc2C(F)(F)F)NS(=O)(=O)c2cccc1n2 [Compound 101, 5-(4,4-dioxido-2^3-(trifluoromethyl)-4-thia-3,6-diaza-2,5(2,6)-dipyridina-1(1,2)-benzenacyclotridecaphane-6-yl)pentanoic acid]

Reference: patent US20220071971A1, “MACROCYCLIC COMPOUNDS AND THEIR USE IN THE TREATMENT OF DISEASE” (NOVARTIS AG, priority 2018, published 2022)
